Experimental data from patent US11716992B2, “5A5B6C tricyclic spirolactone derivative, preparation method therefor and use thereof” (NANKAI UNIVERSITY, priority 2017, dated 2023).
Values joined by “and” are separate entries in the source; they are usually repeats but may differ in a detail not shown here. Equal entries are not always repeated.

What follows are compounds tested on Alternaria solani (assay: Fungicidal activity, fungicide growth rate method, AS). Conditions: Alternaria solani, 50 μg/mL; read-out: fungicidal activity (growth inhibition rate), AS.
Assay type: cell-based

Structure (SMILES) | inhibition at 50 µg/mL [%]
C=CC[C@@H]1C[C@]2(O[Si](C)(C)CC=C)CCO[C@@]23CC[C@H](O[Si](C)(C)CC=C)C[C@@H]13 [Zyj07-48] | 0
C=CC[C@@H]1C[C@@]2(OC(C)=O)C[C@@H](CC=C)[C@H]3C[C@H]4O[C@H]4C[C@@]32O1 [Zyj07-67-1] | 0
C=CC[C@@H]1C[C@@]2(O)C[C@@H](CC=C)[C@H]3C[C@@H](O)CC[C@@]32O1 [Zyj07-68] | 3

These compounds were tested on Rhizoctonia cerealis (assay: Fungicidal activity, fungicide growth rate method, RC). Conditions: Ceratobasidium cereale, 50 μg/mL; read-out: fungicidal activity (growth inhibition rate), RC.
Assay type: cell-based

Structure (SMILES) | inhibition at 50 µg/mL [%]
C=CC[C@@H]1C[C@]2(O[Si](C)(C)CC=C)CCO[C@@]23CC[C@H](O[Si](C)(C)CC=C)C[C@@H]13 [Zyj07-48] | 0
C=CC[C@@H]1C[C@@]2(OC(C)=O)C[C@@H](CC=C)[C@H]3C[C@H]4O[C@H]4C[C@@]32O1 [Zyj07-67-1] | 0
C=CC[C@@H]1C[C@@]2(O)C[C@@H](CC=C)[C@H]3C[C@@H](O)CC[C@@]32O1 [Zyj07-68] | 21

The compounds below were run on Physalospora piricola (assay: Fungicidal activity, fungicide growth rate method, PP). Conditions: 50 μg/mL; read-out: fungicidal activity (growth inhibition rate), PP.
Assay type: cell-based

Structure (SMILES) | inhibition at 50 µg/mL [%]
C=CC[C@@H]1C[C@]2(O[Si](C)(C)CC=C)CCO[C@@]23CC[C@H](O[Si](C)(C)CC=C)C[C@@H]13 [Zyj07-48] | 13
C=CC[C@@H]1C[C@@]2(OC(C)=O)C[C@@H](CC=C)[C@H]3C[C@H]4O[C@H]4C[C@@]32O1 [Zyj07-67-1] | 31
C=CC[C@@H]1C[C@@]2(O)C[C@@H](CC=C)[C@H]3C[C@@H](O)CC[C@@]32O1 [Zyj07-68] | 2

Each compound was assayed on Phytophthora infestans (Mont.) de Bary (assay: microbe, parasite or virus in culture). Conditions: Phytophthora infestans, read-out: fungicidal activity (growth inhibition rate), PI, 50 μg/mL.
Assay type: cell-based

Structure (SMILES) | inhibition at 50 µg/mL [%]
C=CC[C@@H]1C[C@]2(O[Si](C)(C)CC=C)CCO[C@@]23CC[C@H](O[Si](C)(C)CC=C)C[C@@H]13 [Zyj07-48] | 19
C=CC[C@@H]1C[C@@]2(OC(C)=O)C[C@@H](CC=C)[C@H]3C[C@H]4O[C@H]4C[C@@]32O1 [Zyj07-67-1] | 32
C=CC[C@@H]1C[C@@]2(O)C[C@@H](CC=C)[C@H]3C[C@@H](O)CC[C@@]32O1 [Zyj07-68] | 13

These compounds were tested on Apis mellifera ligustica Spin (assay: not given). Conditions: dosage 9.89 μg a.i./bee.

Structure (SMILES) | Death rate after 48 h (%)
C=CC[C@@H]1C[C@]2(O[Si](C)(C)CC=C)CCO[C@@]23CC[C@H](O[Si](C)(C)CC=C)C[C@@H]13 [Zyj07-48] | 5.0

Same assay, conditions: dosage 9.89 μg a.i./bee; per replicate of 10 bees

Structure (SMILES) | Death number after 24 h | Death number after 48 h
C=CC[C@@H]1C[C@]2(O[Si](C)(C)CC=C)CCO[C@@]23CC[C@H](O[Si](C)(C)CC=C)C[C@@H]13 [Zyj07-48] | 0 | 0 and 1

Same assay, conditions: dosage 9.97 μg a.i./bee

Structure (SMILES) | Death rate after 48 h (%)
C=CC[C@@H]1C[C@@]2(O)C[C@@H](CC=C)[C@H]3C[C@@H](O)CC[C@@]32O1 [Zyj07-68] | 10.0

Same assay, conditions: dosage 9.97 μg a.i./bee; per replicate of 10 bees

Structure (SMILES) | Death number after 24 h | Death number after 48 h
C=CC[C@@H]1C[C@@]2(O)C[C@@H](CC=C)[C@H]3C[C@@H](O)CC[C@@]32O1 [Zyj07-68] | 0 | 1

Same assay, conditions: dosage 16.1 μg a.i./bee

Structure (SMILES) | Death rate after 48 h (%)
C=CC[C@@H]1C[C@@]2(O)C[C@@H](CC=C)[C@H]3C[C@@H](O)CC[C@@]32O1 [Zyj07-68] | 0

Same assay, conditions: dosage 16.1 μg a.i./bee; per replicate of 10 bees

Structure (SMILES) | Death number after 24 h | Death number after 48 h
C=CC[C@@H]1C[C@@]2(O)C[C@@H](CC=C)[C@H]3C[C@@H](O)CC[C@@]32O1 [Zyj07-68] | 0 | 0

Same assay, conditions: dosage 19.8 μg a.i./bee

Structure (SMILES) | Death rate after 48 h (%)
C=CC[C@@H]1C[C@]2(O[Si](C)(C)CC=C)CCO[C@@]23CC[C@H](O[Si](C)(C)CC=C)C[C@@H]13 [Zyj07-48] | 0

Same assay, conditions: dosage 19.8 μg a.i./bee; per replicate of 10 bees

Structure (SMILES) | Death number after 24 h | Death number after 48 h
C=CC[C@@H]1C[C@]2(O[Si](C)(C)CC=C)CCO[C@@]23CC[C@H](O[Si](C)(C)CC=C)C[C@@H]13 [Zyj07-48] | 0 | 0

These compounds were tested on Caenorhabditis elegans (assay: Insecticidal activity against Caenorhabditis elegans). Conditions: Caenorhabditis elegans, 100 μg/mL; read-out: insecticidal activity, Caenorhabditis elegans.
Assay type: in vivo

Structure (SMILES) | pest or weed control at 100 µg/mL [%]
C=CC[C@@H]1C[C@@]2(O)C[C@@H](CC=C)[C@H]3C[C@@H](O)CC[C@@]32O1 [Zyj07-68] | 13

Same assay, conditions: Caenorhabditis elegans, read-out: insecticidal activity, Caenorhabditis elegans

Structure (SMILES) | pest or weed control at 100 µg/mL [%]
C=CC[C@@H]1C[C@]2(O[Si](C)(C)CC=C)CCO[C@@]23CC[C@H](O[Si](C)(C)CC=C)C[C@@H]13 [Zyj07-48] | 25

Each compound was assayed on Sclerotinia sclerotiorum (assay: Fungicidal activity, fungicide growth rate method, SS). Conditions: Sclerotinia sclerotiorum, 50 μg/mL.
Assay type: cell-based

Structure (SMILES) | inhibition at 50 µg/mL [%]
C=CC[C@@H]1C[C@]2(O[Si](C)(C)CC=C)CCO[C@@]23CC[C@H](O[Si](C)(C)CC=C)C[C@@H]13 [Zyj07-48] | > 50
C=CC[C@@H]1C[C@@]2(O)C[C@@H](CC=C)[C@H]3C[C@@H](O)CC[C@@]32O1 [Zyj07-68] | > 50

Each compound was assayed on wheat Gibberella zeae (assay: microbe, parasite or virus in culture). Conditions: Fusarium graminearum, read-out: fungicidal activity (growth inhibition rate), GZ, 50 μg/mL.
Assay type: cell-based

Structure (SMILES) | inhibition at 50 µg/mL [%]
C=CC[C@@H]1C[C@]2(O[Si](C)(C)CC=C)CCO[C@@]23CC[C@H](O[Si](C)(C)CC=C)C[C@@H]13 [Zyj07-48] | 7
C=CC[C@@H]1C[C@@]2(OC(C)=O)C[C@@H](CC=C)[C@H]3C[C@H]4O[C@H]4C[C@@]32O1 [Zyj07-67-1] | 23
C=CC[C@@H]1C[C@@]2(O)C[C@@H](CC=C)[C@H]3C[C@@H](O)CC[C@@]32O1 [Zyj07-68] | 0

These compounds were tested on Botrytis cinerea (assay: Fungicidal activity, fungicide growth rate method, BC). Conditions: Botrytis cinerea, 50 μg/mL; read-out: fungicidal activity (growth inhibition rate), BC.
Assay type: cell-based

Structure (SMILES) | inhibition at 50 µg/mL [%]
C=CC[C@@H]1C[C@]2(O[Si](C)(C)CC=C)CCO[C@@]23CC[C@H](O[Si](C)(C)CC=C)C[C@@H]13 [Zyj07-48] | > 50
C=CC[C@@H]1C[C@@]2(OC(C)=O)C[C@@H](CC=C)[C@H]3C[C@H]4O[C@H]4C[C@@]32O1 [Zyj07-67-1] | > 50
C=CC[C@@H]1C[C@@]2(O)C[C@@H](CC=C)[C@H]3C[C@@H](O)CC[C@@]32O1 [Zyj07-68] | 36

The compounds below were run on Pellicularia sasakii (assay: Fungicidal activity, fungicide growth rate method, PS). Conditions: 50 μg/mL; read-out: fungicidal activity (growth inhibition rate), PS.
Assay type: cell-based

Structure (SMILES) | inhibition at 50 µg/mL [%]
C=CC[C@@H]1C[C@]2(O[Si](C)(C)CC=C)CCO[C@@]23CC[C@H](O[Si](C)(C)CC=C)C[C@@H]13 [Zyj07-48] | 14
C=CC[C@@H]1C[C@@]2(OC(C)=O)C[C@@H](CC=C)[C@H]3C[C@H]4O[C@H]4C[C@@]32O1 [Zyj07-67-1] | 18
C=CC[C@@H]1C[C@@]2(O)C[C@@H](CC=C)[C@H]3C[C@@H](O)CC[C@@]32O1 [Zyj07-68] | 9

What follows are compounds tested on Cercospora arachidicola (assay: Fungicidal activity, fungicide growth rate method, CA). Conditions: Mycosphaerella arachidis, 50 μg/mL; read-out: fungicidal activity (growth inhibition rate), CA.
Assay type: cell-based

Structure (SMILES) | inhibition at 50 µg/mL [%]
C=CC[C@@H]1C[C@]2(O[Si](C)(C)CC=C)CCO[C@@]23CC[C@H](O[Si](C)(C)CC=C)C[C@@H]13 [Zyj07-48] | 35
C=CC[C@@H]1C[C@@]2(OC(C)=O)C[C@@H](CC=C)[C@H]3C[C@H]4O[C@H]4C[C@@]32O1 [Zyj07-67-1] | 14
C=CC[C@@H]1C[C@@]2(O)C[C@@H](CC=C)[C@H]3C[C@@H](O)CC[C@@]32O1 [Zyj07-68] | 19

These compounds were tested on Mythimna separate (Walker) (assay: Insecticidal activity against Mythimna separate (Walker)). Conditions: Mythimna, 100 μg/mL; read-out: insecticidal activity, Mythimna separate (Walker).
Assay type: in vivo

Structure (SMILES) | pest or weed control at 100 µg/mL [%]
C=CC[C@@H]1C[C@@]2(OC(C)=O)C[C@@H](CC=C)[C@H]3C[C@H]4O[C@H]4C[C@@]32O1 [Zyj07-67-1] | 20
C=CC[C@@H]1C[C@@]2(O)C[C@@H](CC=C)[C@H]3C[C@@H](O)CC[C@@]32O1 [Zyj07-68] | 0

Same assay, conditions: Mythimna, read-out: insecticidal activity, Mythimna separate (Walker)

Structure (SMILES) | pest or weed control at 100 µg/mL [%]
C=CC[C@@H]1C[C@]2(O[Si](C)(C)CC=C)CCO[C@@]23CC[C@H](O[Si](C)(C)CC=C)C[C@@H]13 [Zyj07-48] | 0

The compounds below were run on Ostrinia furnacalis (assay: Insecticidal activity against Ostrinia furnacalis). Conditions: Ostrinia furnacalis, read-out: insecticidal activity, Ostrinia furnacalis.
Assay type: in vivo

Structure (SMILES) | pest or weed control at 100 µg/mL [%]
C=CC[C@@H]1C[C@]2(O[Si](C)(C)CC=C)CCO[C@@]23CC[C@H](O[Si](C)(C)CC=C)C[C@@H]13 [Zyj07-48] | 0

Same assay, conditions: Ostrinia furnacalis; 100 μg/mL; read-out: insecticidal activity, Ostrinia furnacalis

Structure (SMILES) | pest or weed control at 100 µg/mL [%]
C=CC[C@@H]1C[C@@]2(OC(C)=O)C[C@@H](CC=C)[C@H]3C[C@H]4O[C@H]4C[C@@]32O1 [Zyj07-67-1] | 5
C=CC[C@@H]1C[C@@]2(O)C[C@@H](CC=C)[C@H]3C[C@@H](O)CC[C@@]32O1 [Zyj07-68] | 0

The compounds below were run on Tobacco Mosaic Virus (assay: Anti-TMV inactivation activity on tobacco plants). Conditions: compound mixed with TMV solution 30 minutes, lesions checked three days later.
Assay type: in vivo

Structure (SMILES) | TMV inactivation (anti-TMV activity) [%]
C=CC[C@@H]1C[C@@]2(OC(C)=O)C[C@@H](CC=C)[C@H]3C[C@H]4O[C@H]4C[C@@]32O1 [Zyj07-67-1] | 7

These compounds were tested on Helicoverpa armigera (Hübner) (assay: Insecticidal activity against Helicoverpa armigera (Hübner)). Conditions: Helicoverpa armigera, read-out: insecticidal activity, Helicoverpa armigera (Hübner).
Assay type: in vivo

Structure (SMILES) | pest or weed control at 100 µg/mL [%]
C=CC[C@@H]1C[C@]2(O[Si](C)(C)CC=C)CCO[C@@]23CC[C@H](O[Si](C)(C)CC=C)C[C@@H]13 [Zyj07-48] | 0

Same assay, conditions: Helicoverpa armigera; 100 μg/mL; read-out: insecticidal activity, Helicoverpa armigera (Hübner)

Structure (SMILES) | pest or weed control at 100 µg/mL [%]
C=CC[C@@H]1C[C@@]2(OC(C)=O)C[C@@H](CC=C)[C@H]3C[C@H]4O[C@H]4C[C@@]32O1 [Zyj07-67-1] | 10
C=CC[C@@H]1C[C@@]2(O)C[C@@H](CC=C)[C@H]3C[C@@H](O)CC[C@@]32O1 [Zyj07-68] | 0
